Experimental data reported in ChEMBL document CHEMBL3885881, “DrugMatrix”.

Species: Rattus norvegicus
Assay: DrugMatrix - Regimen: Daily Repeat
Assay type: toxicity, organism-based, Sprague-Dawley
Set-up: regimen Daily Repeat, gender Male, age 6-8 weeks
Details: in vivo, po, route oral GAVAGE, […]; for ABSOLUTE BASOPHIL / BASOPHIL / NUCLEATED RED BLOOD CELLS / ABSOLUTE EOSINOPHIL / EOSINOPHIL / ERYTHROCYTE COUNT / HEMATOCRIT / HEMOGLOBIN / LEUKOCYTE COUNT / LYMPHOCYTE / MEAN CORPUSCULAR HEMOGLOBIN / MEAN CORPUSCULAR HEMOGLOBIN CONCENTRATION / MEAN CORPUSCULAR VOLUME / MONOCYTE / NEUTROPHIL / PLATELET COUNT / ABSOLUTE LYMPHOCYTE / ABSOLUTE MONOCYTE / ABSOLUTE SEGMENTED NEUTROPHIL: tissue Blood
[1] = 0 mg/kg, 72 h, dose level Control, time 3 day
[2] = 0 mg/kg, 120 h, dose level Control, time 5 day
[3] = 0 mg/kg, dose level Control, time 28 day
[4] = 0 mg/kg, tissue Plasma, dose level Control, time 28 day
[5] = 23 mg/kg, 72 h, dose level Low, time 3 day
[6] = 23 mg/kg, 72 h, tissue Plasma, dose level Low, time 3 day
[7] = 23 mg/kg, 120 h, dose level High, time 5 day
[8] = 23 mg/kg, 120 h, dose level Low, time 5 day
[9] = 23 mg/kg, 120 h, tissue Plasma, dose level High, time 5 day
[10] = 23 mg/kg, 120 h, tissue Plasma, dose level Low, time 5 day

## CC1=C(CC(=O)O)c2cc(F)ccc2/C1=C\c1ccc([S+](C)[O-])cc1 (stereo not given)
[1]
  ABSOLUTE BASOPHIL: 0 CELLS/uL
  BASOPHIL: 0%
  NUCLEATED RED BLOOD CELLS: 0 /100WBC
[2]
  ABSOLUTE BASOPHIL: 0 CELLS/uL
  ABSOLUTE EOSINOPHIL: 0 CELLS/uL
[3]
  BASOPHIL: 0.42%
  EOSINOPHIL: 0.58%
  ERYTHROCYTE COUNT: 8.06 x10E6/uL
  HEMATOCRIT: 48.44%
  HEMOGLOBIN: 16.34 G/DL
  LEUKOCYTE COUNT: 13.04 x10E3/uL
  LYMPHOCYTE: 85.12%
  MEAN CORPUSCULAR HEMOGLOBIN: 20.26 pg
  MEAN CORPUSCULAR HEMOGLOBIN CONCENTRATION: 33.74 G/DL
  MEAN CORPUSCULAR VOLUME: 60.1 fL
  MONOCYTE: 1.44%
  NEUTROPHIL: 11.28%
  PLATELET COUNT: 1226 x10E3/uL
[4]
  ALANINE AMINOTRANSFERASE: 28.6 u/L
  ALBUMIN: 3.94 G/DL
  ALKALINE PHOSPHATASE: 254.6 u/L
  ASPARTATE AMINOTRANSFERASE: 67.8 u/L
  BLOOD UREA NITROGEN: 10.4 mg/dL
  CHLORIDE: 104.6 MEQ/L
  CHOLESTEROL: 57.6 mg/dL
  CREATINE PHOSPHOKINASE: 224.8 u/L
  CREATININE: 0.4 mg/dL
  GLUCOSE: 140.6 mg/dL
  PHOSPHORUS: 10.66 mg/dL
  POTASSIUM: 6.58 MEQ/L
  SODIUM: 148.6 MEQ/L
  TOTAL BILIRUBIN: 0.24 mg/dL
  TOTAL PROTEIN: 6.64 G/DL
[5]
  ABSOLUTE BASOPHIL: 0 CELLS/uL
  ABSOLUTE EOSINOPHIL: 0 CELLS/uL
  ABSOLUTE LYMPHOCYTE: 6660 CELLS/uL
  ABSOLUTE MONOCYTE: 202 CELLS/uL
  ABSOLUTE SEGMENTED NEUTROPHIL: 1671.33 CELLS/uL
  BASOPHIL: 0%
  EOSINOPHIL: 0%
  ERYTHROCYTE COUNT: 4.91 x10E6/uL
  HEMATOCRIT: 31.27%
  HEMOGLOBIN: 12.6 G/DL
  LEUKOCYTE COUNT: 8.53 x10E3/uL
  LYMPHOCYTE: 79.33%
  MEAN CORPUSCULAR HEMOGLOBIN: 25.63 pg
  MEAN CORPUSCULAR HEMOGLOBIN CONCENTRATION: 40.27 G/DL
  MEAN CORPUSCULAR VOLUME: 63.67 fL
  MONOCYTE: 2.33%
  NEUTROPHIL: 18.33%
  NUCLEATED RED BLOOD CELLS: 0 /100WBC
  PLATELET COUNT: 1080 x10E3/uL
[6]
  ALANINE AMINOTRANSFERASE: 65.67 u/L
  ALBUMIN: 3.97 G/DL
  ALKALINE PHOSPHATASE: 429 u/L
  ASPARTATE AMINOTRANSFERASE: 75.67 u/L
  BLOOD UREA NITROGEN: 14.33 mg/dL
  CARBON DIOXIDE: 38.33 mmol/L
  CHLORIDE: 99.33 MEQ/L
  CHOLESTEROL: 87 mg/dL
  CREATINE PHOSPHOKINASE: 223.33 u/L
  CREATININE: 0.18 mg/dL
  GLUCOSE: 181 mg/dL
  LACTATE DEHYDROGENASE: 60.67 u/L
  LIPASE: 16 u/L
  PHOSPHORUS: 9.23 mg/dL
  POTASSIUM: 4.45 MEQ/L
  SODIUM: 143.57 MEQ/L
  TOTAL BILIRUBIN: 0.13 mg/dL
  TOTAL PROTEIN: 5.8 G/DL
  URIC ACID: 0.47 mg/dL
[7]
  BASOPHIL: 0.28%
  EOSINOPHIL: 0.82%
  ERYTHROCYTE COUNT: 7.33 x10E6/uL
  HEMATOCRIT: 47.1%
  HEMOGLOBIN: 14.9 G/DL
  LEUKOCYTE COUNT: 7.35 x10E3/uL
  LYMPHOCYTE: 79.44%
  MEAN CORPUSCULAR HEMOGLOBIN: 20.4 pg
  MEAN CORPUSCULAR HEMOGLOBIN CONCENTRATION: 31.66 G/DL
  MEAN CORPUSCULAR VOLUME: 64.4 fL
  MONOCYTE: 1.92%
  NEUTROPHIL: 16.36%
  PLATELET COUNT: 1405.2 x10E3/uL
[8]
  ABSOLUTE BASOPHIL: 0 CELLS/uL
  ABSOLUTE EOSINOPHIL: 0 CELLS/uL
  ABSOLUTE LYMPHOCYTE: 5718.33 CELLS/uL
  ABSOLUTE MONOCYTE: 84 CELLS/uL
  ABSOLUTE SEGMENTED NEUTROPHIL: 664.33 CELLS/uL
  BASOPHIL: 0%
  EOSINOPHIL: 0%
  ERYTHROCYTE COUNT: 5.51 x10E6/uL
  HEMATOCRIT: 34.03%
  HEMOGLOBIN: 13.47 G/DL
  LEUKOCYTE COUNT: 6.47 x10E3/uL
  LYMPHOCYTE: 88.33%
  MEAN CORPUSCULAR HEMOGLOBIN: 24.47 pg
  MEAN CORPUSCULAR HEMOGLOBIN CONCENTRATION: 39.6 G/DL
  MEAN CORPUSCULAR VOLUME: 61.87 fL
  MONOCYTE: 1.33%
  NEUTROPHIL: 10.33%
  NUCLEATED RED BLOOD CELLS: 0.33 /100WBC
  PLATELET COUNT: 949.67 x10E3/uL
[9]
  ALANINE AMINOTRANSFERASE: 32.2 u/L
  ALBUMIN: 3.8 G/DL
  ALKALINE PHOSPHATASE: 308.4 u/L
  ASPARTATE AMINOTRANSFERASE: 75.4 u/L
  BLOOD UREA NITROGEN: 8.8 mg/dL
  CHLORIDE: 109 MEQ/L
  CHOLESTEROL: 63.8 mg/dL
  CREATINE PHOSPHOKINASE: 287.2 u/L
  CREATININE: 0.42 mg/dL
  GLUCOSE: 131.8 mg/dL
  PHOSPHORUS: 14.88 mg/dL
  POTASSIUM: 6.36 MEQ/L
  SODIUM: 151.6 MEQ/L
  TOTAL BILIRUBIN: 0.18 mg/dL
  TOTAL PROTEIN: 6.24 G/DL
[10]
  ALANINE AMINOTRANSFERASE: 67.33 u/L
  ALBUMIN: 4.17 G/DL
